Results reported in patent US8455491B2, “6-cycloamino-3-(pyridazin-4-yl)imidazo[1,2-b]pyridazine and derivatives and pharmaceutical compositions comprising the same” (Sanofi, priority 2007, dated 2013).

Columns and labels:
[1] = molecular target: T1, human CK1 delta (Homo sapiens, UniProt P48730); assay: FRET fluorescence test (Z'Lyte kinase assay Kit), CK1 delta; assay type: biochemical; conditions: peptide substrate SER/THR 11 2 μM, ATP 4 times the KM
T1 construct: purchased Invitrogen Corporation PV3665
Source text: The capacity of the compounds of the invention to inhibit the phosphorylation of casein by casein kinase 1 epsilon and delta may be evaluated using a FRET (“Fluorescence Resonance Energy Transfer) fluorescence test with the aid of the “Z′Lyte™ kinase assay Kit” (reference PV3670; Invitrogen Corporation™) according to the manufacturer's instructions.
The casein kinases 1 used are obtained from Invitrogen Corporation (human CK1 epsilon PV3500 and human CK1 delta PV3665).
A peptide substrate, labeled at both ends with a fluorophore donor group (coumarin) and a fluorophore acceptor group ([…]) constituting a FRET system is phosphorylated in the presence of ATP by casein kinase 1 epsilon or delta in the presence increasing concentrations of compounds of the invention. The mixture is treated with a site-specific protease that specifically cleaves the peptide substrate to form two fluorescent fragments having a large fluorescence emission ratio.
The fluorescence observed is thus related to the capacity of the products of the invention to inhibit the phosphorylation of the peptide substrate by casein kinase 1 epsilon or casein kinase 1 delta.
The compounds of the invention are dissolved at different concentrations starting with a 10 mM stock solution in DMSO diluted in a buffer containing 50 mM HEPS, pH 7.5, 1 m MEGTA, 0.01% Brij-35, 10 mM MgCl for casein kinase 1 epsilon and supplemented with Trizma Base (50 mM), pH 8.0, and NaN3 (0.01% final) for casein kinase 1 delta.
The phosphorylation of the peptide substrate SER/THR 11 obtained from Invitrogen Corporation™ is performed at a final concentration of 2 μM. The ATP concentration is 4 times the KM, this value being 2 μM for casein kinase 1 epsilon and 4 μM for casein kinase 1 delta.
The emitted fluorescence is measured at wavelengths of 445 and 520 nm (excitation at 400 nm).

[2] = molecular target: T2, casein kinase 1 epsilon (CK1 epsilon) (Homo sapiens, UniProt P49674); assay: Filter-plate assay of ATP-33P, inhibition of casein phosphorylation by CK1 epsilon; assay type: biochemical; conditions: casein substrate, ATP 10 μM, 2 hours at ambient temperature
T2 construct: Invitrogen Corporation (named as alternative)
Experimental: The capacity of the compounds of the invention to inhibit the phosphorylation of casein by casein kinase 1 epsilon and delta may be evaluated according to the procedure described in US 2005/0131012.
Filter-Plate Assay of ATP-^33P for the Screening of CK1 Epsilon Inhibitors:
The effect of the compounds on inhibition of the phosphorylation of casein by the enzyme casein kinase 1 epsilon (CK1 epsilon) is measured, using a casein assay with filtration of ATP-^33P in vitro.
Casein kinase 1 epsilon (0.58 mg/ml) is obtained via fermentation and purification processes performed according to methods that are well known to those skilled in the art, or may also be obtained from Invitrogen Corporation™ (human CK1 epsilon).
The compounds are tested at five different concentrations so as to generate IC50 values, i.e. the concentration at which a compound is capable of inhibiting the enzymatic activity by 50%, or alternatively the percentage of inhibition at a concentration of 10 micromolar.
“U”-bottomed Falcon plates are prepared by placing 5 μL of solutions of the compounds according to the invention at concentrations of 10, 1, 0.1, 0.01 or 0.001 μM in various wells. The solutions of the compounds according to the invention at these various concentrations are prepared by diluting in a test buffer (50 mM Tris, pH 7.5, […], 2 mM DTT and 1 mM EGTA) a stock solution in DMSO at a concentration of 10 mM. Next, 5 μL of dephosphorylated casein are added to a final concentration of 0.2 μg/μL, 20 μl of CK1 epsilon to a final concentration of 3 ng/μl, and 20 μl of ATP-^33P to a final concentration of 0.02 μCi/μl mixed with cold ATP (10 μM final—approximately 2×10^6 CPM per well). The final total test volume per well is equal to 50 μl.
The “U”-bottomed Falcon® test plate mentioned above is vortexed, and then incubated at ambient temperature for 2 hours. After 2 hours, the reaction is stopped by adding an ice-cold solution of 65 μl of ATP (2 mM) prepared in test buffer.
100 μl of the reaction mixture are then transferred from the “U”-bottomed Falcon® plate into Millipore® MAPH filter plates, preimpregnated with 25 μl of ice-cold 100% TCA. […]
The plates are left to dry overnight at ambient temperature. […] The radiation emitted by each well is then measured for 2 minutes in a Packard® Topcount NXT scintillation counter, in which the values of CPM/well are measured.
The percentage inhibition of the capacity of the enzyme to phosphorylate the substrate (casein) is determined for each concentration of compound tested. These inhibition data expressed as percentages are used to calculate the IC50 value for each compound compared with the controls.
The kinetic studies determined the KM value for ATP as being 21 μM in this test system.

T2 sequence (P49674 whole entry): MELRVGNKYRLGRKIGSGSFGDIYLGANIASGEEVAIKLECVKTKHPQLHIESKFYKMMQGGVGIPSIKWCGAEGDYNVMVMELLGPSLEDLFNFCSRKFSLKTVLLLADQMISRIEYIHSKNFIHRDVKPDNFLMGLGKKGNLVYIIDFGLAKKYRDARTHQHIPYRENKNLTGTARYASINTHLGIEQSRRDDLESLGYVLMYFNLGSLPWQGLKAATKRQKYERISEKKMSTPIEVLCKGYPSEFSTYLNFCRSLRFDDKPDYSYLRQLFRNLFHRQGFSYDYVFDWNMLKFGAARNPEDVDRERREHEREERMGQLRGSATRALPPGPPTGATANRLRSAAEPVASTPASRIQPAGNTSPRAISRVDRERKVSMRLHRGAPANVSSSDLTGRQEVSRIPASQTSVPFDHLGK
T1 sequence (P48730 whole entry): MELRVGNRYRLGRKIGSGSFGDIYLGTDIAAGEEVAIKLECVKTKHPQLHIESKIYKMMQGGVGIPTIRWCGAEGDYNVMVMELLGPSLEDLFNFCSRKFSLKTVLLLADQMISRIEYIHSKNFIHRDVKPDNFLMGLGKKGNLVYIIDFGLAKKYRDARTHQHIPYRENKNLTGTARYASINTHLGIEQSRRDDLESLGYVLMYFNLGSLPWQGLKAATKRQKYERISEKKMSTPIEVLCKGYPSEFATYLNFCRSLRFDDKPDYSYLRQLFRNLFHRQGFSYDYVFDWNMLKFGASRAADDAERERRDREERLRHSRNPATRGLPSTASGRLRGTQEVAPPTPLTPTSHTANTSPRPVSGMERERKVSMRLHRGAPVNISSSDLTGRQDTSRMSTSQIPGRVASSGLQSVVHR

IC50 [1]: 41 to 56 nM | IC50 [2]: 16 to 33 nM | melting point: 232 to 233 °C
Compound: CN1CCN(c2ccc3nc(-c4ccc(F)cc4)c(-c4ccnnc4)n3n2)CC1 [compound 5, 2-(4-fluorophenyl)-6-(4-methylpiperazin-1-yl)-3-pyridazin-4-yl-imidazo[1,2-b]pyridazine]
